Results taken from PubChem BioAssay (NCI).
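Compound exposure: 48 hours, 5 concentrations, 96-well plates. The concentration for 50% growth inhibition is given as GI50. TGI marks complete inhibition of growth.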

Legend:
Assay in all cases: NCI tumour cell line growth inhibition, 48 h
CCRF-CEM leukemia = system: CCRF-CEM leukemia
SF-268 CNS = system: SF-268 CNS
SK-MEL-5 melanoma = system: SK-MEL-5 melanoma
SW-620 colon = system: SW-620 colon
HCT-116 colon = system: HCT-116 colon
SN12C renal = system: SN12C renal
KM12 colon = system: KM12 colon
SNB-75 CNS = system: SNB-75 CNS
HOP-62 NSCLC = system: HOP-62 NSCLC
OVCAR-5 ovarian = system: OVCAR-5 ovarian
M14 melanoma = system: M14 melanoma
NCI-H460 lung = system: NCI-H460 lung
UACC-257 melanoma = system: UACC-257 melanoma
IGROV1 ovarian = system: IGROV1 ovarian
K-562 leukemia = system: K-562 leukemia
HL-60(TB) leukemia = system: HL-60(TB) leukemia
ACHN renal = system: ACHN renal
SF-295 CNS = system: SF-295 CNS
OVCAR-3 ovarian = system: OVCAR-3 ovarian
UO-31 renal = system: UO-31 renal
786-0 renal = system: 786-0 renal
A549 NSCLC = system: A549 NSCLC
SR leukemia = system: SR leukemia
PC-3 prostate = system: PC-3 prostate
HCC-2998 colon = system: HCC-2998 colon
TK-10 renal = system: TK-10 renal
U251 CNS = system: U251 CNS
SF-539 CNS = system: SF-539 CNS

For `CN(C)c1ccc(-c2cc(-c3cccc(NS(C)(=O)=O)c3)nc(N)c2C#N)cc1`, the GI50 (CCRF-CEM leukemia) was 37.9 nM, the TGI (CCRF-CEM leukemia) was greater than 100 µM and the GI50 (SF-268 CNS) was 56.1 nM. The TGI (SF-268 CNS) was 28.9 µM, the GI50 (SK-MEL-5 melanoma) was 41.4 nM and the TGI (SK-MEL-5 melanoma) was 997 nM. For the same compound, the GI50 (SW-620 colon) was 41.1 nM, the TGI (SW-620 colon) was 18.6 µM and the GI50 (HCT-116 colon) was 40.4 nM. It also gave a TGI (HCT-116 colon) of 2190 nM, a GI50 (SN12C renal) of 53.7 nM and a TGI (SN12C renal) of 20.7 µM. The GI50 (KM12 colon) was 38.1 nM, the TGI (KM12 colon) was 1750 nM and the GI50 (SNB-75 CNS) was 27.2 nM. It also gave a TGI (SNB-75 CNS) of 3.22 µM, a GI50 (HOP-62 NSCLC) of 45 nM and a TGI (HOP-62 NSCLC) of 29.6 µM. The GI50 (OVCAR-5 ovarian) was 121 nM, the TGI (OVCAR-5 ovarian) was greater than 74.8 µM and the GI50 (M14 melanoma) was 26.2 nM. The TGI (M14 melanoma) was 13.4 µM, the GI50 (NCI-H460 lung) was 37.8 nM and the TGI (NCI-H460 lung) was 18.6 µM. The GI50 (UACC-257 melanoma) was 56.3 nM, the TGI (UACC-257 melanoma) was 44.6 µM and the GI50 (IGROV1 ovarian) was 62.4 nM. The TGI (IGROV1 ovarian) was 30.8 µM, the GI50 (K-562 leukemia) was 37.2 nM and the TGI (K-562 leukemia) was 48.5 µM. It also gave a GI50 (HL-60(TB) leukemia) of 36.2 nM, a TGI (HL-60(TB) leukemia) of 411 nM and a GI50 (ACHN renal) of 67 nM. The TGI (ACHN renal) was 23.3 µM, the GI50 (SF-295 CNS) was 27.4 nM and the TGI (SF-295 CNS) was 3.95 µM. The GI50 (OVCAR-3 ovarian) was 22.6 nM, the TGI (OVCAR-3 ovarian) was 56.8 nM and the GI50 (UO-31 renal) was 56.2 nM. It also gave a TGI (UO-31 renal) of 45 µM, a GI50 (786-0 renal) of 49.1 nM and a TGI (786-0 renal) of 13.5 µM. The GI50 (A549 NSCLC) was 53.7 nM, the TGI (A549 NSCLC) was greater than 56.2 µM and the GI50 (SR leukemia) was 35.9 nM. For the same compound, the TGI (SR leukemia) was 26.7 µM, the GI50 (PC-3 prostate) was 32.7 nM and the TGI (PC-3 prostate) was 13.3 µM. The GI50 (HCC-2998 colon) was 92.5 nM, the TGI (HCC-2998 colon) was 866 nM and the GI50 (TK-10 renal) was 73.5 nM. For the same compound, the TGI (TK-10 renal) was greater than 55.2 µM, the GI50 (U251 CNS) was 41.8 nM and the TGI (U251 CNS) was 20.4 µM. For the same compound, the GI50 (SF-539 CNS) was 27.9 nM.
